According to patent US6375961B1, “Cosmetic skin care compositions containing cumic alcohol” (Unilever Home & Personal Care (USA), division of Conopoco, …, priority 1999, dated 2002):

How the values were obtained:
Type in all cases: cell-based
human keratinocytes [1] = test: Glucose uptake assay (3H 2-deoxy-glucose) in keratinocytes
Description: Normal human keratinocytes, isolated from neonatal foreskin by trypsin treatment, were grown in Dulbecco's Modified Eagles Medium (DMEM, Life Technologies. Grand Island, New York) with 10% fetal bovine serum in the 10 presence of irradiated mouse fibroblasts for establishing dividing keratinocyte colonies. Cells were incubated until their second passage and stored at −70 ° C. for future use. All incubations took place at 37 ° C. with 5% CO2. Frozen second passage keratinocytes were thawed and plated in T−175 flasks (Corning. Corning, N.Y.) with DMEM and grown for five days. After reaching 80% confluence, they were trypsinized and seeded into 6-well plates containing keratinocyte growth medium (KGM, Clonetics, San Diego, Calif.) with 0.15 mM calcium. Keratinocytes were plated in KGM medium at either 0.5 or 1 million cells/plate in six well plates and incuoated for 4 days. The medium was then aspirated, and the wells were rinsed twice with Phosphate Buffered Saline (PBS), then the plates were incubated (1 mL/well) for 24 hours. The medium was replaced with fresh KBM, 10 ul of corn oil containing cumic alcohol at various concentrations were added and cells were allowed to incubate (for 4 hours at 37C) before 2 μCi of ^3H 2-deoxy-glucose (Amersham, UK) were added to each well. Samples were then incubated for one hour. The medium was aspirated and wells were rinsed three times with PBS before the addition of 500 μL of 0.1N NaOH/well. After 10 minutes of agitation on a shaker, a 25 μL aliquot was removed for protein analysis, and 200 μL were transferred to a scintillation vial containing 5mL Scintillation cocktail (Scintiverse) and counting was performed on a Beckman counter, ^3H-Glucose uptake results were expressed as CPM/μg protein. Concentrations used in the examples below are of cumic alcohol in a corn oil droplet. The in vitro concentration may not be relevant to in vivo concentration because there is partitioning between oil and culture medium and the medium concentration of the active is not The oil droplet concentration of the active. For the cumic alcohol to elicit its effect on the cultured cells, it must diffuse out of the corn oil into the culture medium where it is then accessible to the cells. The cumic alcohol concentration in the culture medium is therefore considerably less than the concentration in the corn oil droplet.

human keratinocytes [2] = test: Ascorbate uptake assay (14C-ascorbic acid) in keratinocytes
Description: Normal human keratinocytes, isolated from neonatal foreskin by trypsin treatment, were grown in Dulbecco's Modified Eagles Medium (DMEM, Life Technologies. Grand Island, New York) with 10% fetal bovine serum in the 10 presence of irradiated mouse fibroblasts for establishing dividing keratinocyte colonies. Cells were incubated until their second passage and stored at -70 ° C. for future use. All incubations took place at 37 ° C. with 5% CO2. Frozen second passage keratinocytes were thawed and plated in T-175 flasks (Corning. Corning, N.Y.) with DMEM and grown for five days. After reaching 80% confluence, they were trypsinized and seeded into 6-well plates containing keratinocyte growth medium (KGM, Clonetics, San Diego, Calif.) with 0.15 mM calcium. For this experiment, third passage keratinocytes were plated into a KGM medium (Clonetics, Calif.) containing 0.15 mM calcium. […] Cells were then switched into fresh KBM and were treated with 5% cumic alcohol administered in corn oil (dosed 10 μl corn oil+active at indicated concentration/2 ml media). After 4 hours of incubation, 0.1 μCi/ml of L-^14C-1-ascorbic acid (Amersham, UK) and 50 units of ascorbic oxidase (Sigma) were added to each well and further incubated for 1 hour. The medium was aspirated and wells were rinsed 3 times with PBS before addition of 500 μl of 0.1N NaOH/well. After 10 minutes of agitation on shaker, 25 μL aliquot was removed for protein analysis, and 200 μl were transferred to scintillation vials containing 5 ml of […]. The counting was performed on a Beckman counter (model LS 5801). Ascorbic acid uptake results were expressed as CPM /μg protein. Concentrations used in the examples below are of cumic alcohol in a corn oil droplet. The in vitro concentration may not be relevant to in vivo concentration because there is partitioning between oil and culture medium and the medium concentration of the active is not The oil droplet concentration of the active. […]

human keratinocytes [3] = test: Transglutaminase (TG-1) assay in keratinocytes
Description: Normal human keratinocytes, isolated from neonatal foreskin by trypsin treatment, were grown in Dulbecco's Modified Eagles Medium (DMEM, Life Technologies. Grand Island, New York) with 10% fetal bovine serum in the 10 presence of irradiated mouse fibroblasts for establishing dividing keratinocyte colonies. Cells were incubated until their second passage and stored at −70 ° C. for future use. All incubations took place at 37 ° C. with 5% CO2. Frozen second passage keratinocytes were thawed and plated in T−175 flasks (Corning. Corning, N.Y.) with DMEM and grown for five days. After reaching 80% confluence, they were trypsinized and seeded into 6-well plates containing keratinocyte growth medium (KGM, Clonetics, San Diego, Calif.) with 0.15 mM calcium. Keratinocytes were placed in KGM (2 ml per well) at 0.2 million cells/plate in 6-well plates and grown for four or five days until the cells reached approximately 20% confluence. […] One set of triplicate wells was left untreated to serve as control. After three days of incubation, cells were washed thoroughly with phosphate buffered saline (PBS, 10 mM sodium phosphate, 138 mM sodium choride, 2.7 mM potassium chloride, pH 7.4) and placed at −70 °C. for 2 hours. Cells were then thawed for two hours. The DNA content of cells was quantified by using the DNA-binding fluorophore, bis-benzimidazole (Hoechst 33258) and measuring the specific fluoroescence of the DNA-bound fluorophore (360 nm excitation, 450 nm emission). Cellular TG-1 levels were determined by using a transglutaminase-1 (TG-1) specific monoclonal antibody as the primary antibody (BC1, Amersham, UK) and a peroxidase labeled rabbit antimouse IgG as the secondary antibody (Amersham, UK). The plates were blocked at room temperature with 5% nonfat milk in Tris-buffered saline (TBS, 10 mM Tris, 150 mM NaCL, pH 8.0) for one hour followed by two hours incubation with the primary antibody (1:4000 dilution) in 1% milk/TBS at room temperature. After rinsing the plates three times with 1% milk/TDS containing […] Tween 20 (Bio-Rad, Hercules, Calif.), the plates were incubated with a 1:4000 dilution of the secondary antibody at room temperature for two hours. The plates were then rinsed three times with 1% milk/0.05% Tween 20/TBS and three times with PBS. Color was developed by incubation with o-phenylene-diamine (Sigma, St. Louis. Mo.) and hydrogen peroxide (Sigma) dissolved in a 1:1 mixture of 0.2 M dibasic sodium phosphate (Sigma) and 0.1 M citric acid at pH 5.0(Sigma). Solutions were transferred to 4 ml plastic cuvets (Fisher Scientific, Pittsburgh Pa.) and the absorbance was read at 492 nm on an Ultraspec 3000 spectrophotometer (Pharmacia, Piscataway N.J.) and TG-1 levels were expressed as absorbence/DNA fluorescence. Concentrations used in the examples below are of cumic alcohol in a corn oil droplet. The in vitro concentration may not be relevant to in vivo concentration because there is partitioning between oil and culture medium and the medium concentration of the active is not The oil droplet concentration of the active. For the cumic alcohol to elicit its effect on the cultured cells, it must diffuse out of the corn oil into the culture medium where it is then accessible to the cells. The cumic alcohol concentration in the culture medium is therefore considerably less than the concentration in the corn oil droplet.

human keratinocytes [4] = test: Lipid analysis (ceramides, TLC densitometry) in keratinocytes
[5] = Example 2, Experiment 1, cumic alcohol 2.5% in corn oil
[6] = Example 2, Experiment 1, cumic alcohol 5% in corn oil
[7] = Example 2, Experiment 2, cumic alcohol 2.5% in corn oil
[8] = Example 2, cumic alcohol at 2.5 and 5%
[9] = Example 4, inactivity at lower concentrations

Compound: CC(C)c1ccc(CO)cc1 [CUMIC ALCOHOL, p-isopropylbenzyl alcohol]
- glucose uptake % OF CONTROL (human keratinocytes [1]; cumic alcohol 1% in corn oil droplet): 107%
- glucose uptake % OF CONTROL (human keratinocytes [1]; cumic alcohol 2.5% in corn oil droplet): 185%
- glucose uptake % OF CONTROL (human keratinocytes [1]; cumic alcohol 5% in corn oil droplet): 206%
- glucose uptake CPM/ug PROTEIN (human keratinocytes [1]; cumic alcohol 5% in corn oil droplet (10 ul), 4 h preincubation, 1 h uptake): 40.67 CPM/ug PROTEIN
- ascorbate uptake % of CONTROL (human keratinocytes [2]; cumic alcohol 5% in corn oil): 129%
- ascorbate uptake CPM/WELL (human keratinocytes [2]; cumic alcohol 5% in corn oil (10 ul/2 ml media), 4 h preincubation, 1 h uptake): 17235 +− CPM/WELL
- uptake of ascorbate in comparison to untreated control cells (in words) (human keratinocytes [2]; cumic alcohol at 5% in corn oil): significantly increased uptake
- TG-1 % of CONTROL (human keratinocytes [3]; [5]): 117%
- TG-1 % of CONTROL (human keratinocytes [3]; [6]): 180%
- TG-1 % of CONTROL (human keratinocytes [3]; [7]): 145%
- expression of transglutaminase-1 in comparison to untreated control cells (in words) (human keratinocytes [3]; [8]): increased expression
- TG-1 % of CONTROL (human keratinocytes [3]; Example 4, cumic alcohol 1% in corn oil): 127%
- TG-1 % of CONTROL (human keratinocytes [3]; Example 4, cumic alcohol 2.5% in corn oil): 174%
- TG-1 % of CONTROL (human keratinocytes [3]; Example 4, cumic alcohol 5% in corn oil): 205%
- transglutaminase-1 expression (in words) (human keratinocytes [3]; [9]): significant increase
- ceramides % of CONTROL (human keratinocytes [4]; [5]): 67%
- ceramides % of CONTROL (human keratinocytes [4]; [6]): 156%
- ceramides % of CONTROL (human keratinocytes [4]; [7]): 166%
- ceramides % of CONTROL (human keratinocytes [4]; Example 2, Experiment 2, cumic alcohol 5% in corn oil): 185%
- expression of ceramides in comparison to untreated control cells (in words) (human keratinocytes [4]; [8]): increased expression
- ceramide production (in words) (human keratinocytes [4]; [9]): significant increase
